# Source: ChEMBL document CHEMBL5465560, “Selectivity Literature for EUbOPEN Chemogenomic Library” (2024)
# Assays:
# [1] = biological target: Diacylglycerol kinase alpha (Homo sapiens) (UniProt P23743); assay: Selectivity interaction (Kinase panel (KiNativ target engagement assay in Jurkat cells)) EUB0001635a DGKA; assay type: cell-based; settings: Selectivity number of off-targets 0.0, Selectivity number of targets 233.0, Source Knowledge https://www.sciencedirect.com/science/article/pii/S2451945619300674?via%3Dihub, at 1 µM
# [2] = biological target: T1, Serine/threonine-protein kinase Nek1 (Homo sapiens) (UniProt Q96PY6); assay: Selectivity interaction (Kinase panel (KiNativ target engagement assay in Jurkat cells)) EUB0001635a NEK1; assay type: cell-based; settings: at 1 µM
# T1 sequence (whole entry): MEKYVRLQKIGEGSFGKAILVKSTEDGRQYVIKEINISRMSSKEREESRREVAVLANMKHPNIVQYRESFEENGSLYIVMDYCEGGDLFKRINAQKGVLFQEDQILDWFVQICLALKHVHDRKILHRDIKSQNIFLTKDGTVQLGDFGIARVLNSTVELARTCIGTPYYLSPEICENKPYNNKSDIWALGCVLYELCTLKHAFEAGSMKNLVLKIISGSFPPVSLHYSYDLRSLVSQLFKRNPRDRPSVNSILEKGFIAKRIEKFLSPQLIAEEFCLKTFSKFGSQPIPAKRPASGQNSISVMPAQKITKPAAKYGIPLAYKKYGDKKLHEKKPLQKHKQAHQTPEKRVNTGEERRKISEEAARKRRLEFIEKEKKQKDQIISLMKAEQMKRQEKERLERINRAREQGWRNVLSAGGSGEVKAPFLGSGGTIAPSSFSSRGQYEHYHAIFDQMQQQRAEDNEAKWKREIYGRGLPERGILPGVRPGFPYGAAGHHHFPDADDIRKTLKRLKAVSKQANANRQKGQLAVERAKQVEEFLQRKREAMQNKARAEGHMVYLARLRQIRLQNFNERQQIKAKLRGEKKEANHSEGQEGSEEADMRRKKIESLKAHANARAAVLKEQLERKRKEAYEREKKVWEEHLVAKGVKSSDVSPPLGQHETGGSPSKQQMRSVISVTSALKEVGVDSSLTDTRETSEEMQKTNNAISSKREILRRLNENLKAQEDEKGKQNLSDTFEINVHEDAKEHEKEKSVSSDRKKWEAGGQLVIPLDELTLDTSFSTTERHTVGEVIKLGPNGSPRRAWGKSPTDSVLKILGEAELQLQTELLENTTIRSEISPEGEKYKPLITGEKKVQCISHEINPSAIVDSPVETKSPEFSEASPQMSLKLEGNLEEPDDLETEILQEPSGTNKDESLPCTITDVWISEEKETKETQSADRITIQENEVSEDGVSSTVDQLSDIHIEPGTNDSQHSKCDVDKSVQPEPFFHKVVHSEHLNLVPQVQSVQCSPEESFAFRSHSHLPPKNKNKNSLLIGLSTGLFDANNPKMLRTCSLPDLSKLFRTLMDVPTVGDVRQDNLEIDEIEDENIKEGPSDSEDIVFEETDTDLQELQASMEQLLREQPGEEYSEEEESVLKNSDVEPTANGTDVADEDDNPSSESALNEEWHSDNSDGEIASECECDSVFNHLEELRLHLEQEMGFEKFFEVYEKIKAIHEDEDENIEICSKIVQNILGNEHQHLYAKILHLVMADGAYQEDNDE
# [3] = biological target: T2, Ephrin type-A receptor 3 (Homo sapiens) (UniProt P29320); assay: Selectivity interaction (KinomeScan (DiscoverX)) EUB0000045b EPHA3
# T2 sequence (whole entry): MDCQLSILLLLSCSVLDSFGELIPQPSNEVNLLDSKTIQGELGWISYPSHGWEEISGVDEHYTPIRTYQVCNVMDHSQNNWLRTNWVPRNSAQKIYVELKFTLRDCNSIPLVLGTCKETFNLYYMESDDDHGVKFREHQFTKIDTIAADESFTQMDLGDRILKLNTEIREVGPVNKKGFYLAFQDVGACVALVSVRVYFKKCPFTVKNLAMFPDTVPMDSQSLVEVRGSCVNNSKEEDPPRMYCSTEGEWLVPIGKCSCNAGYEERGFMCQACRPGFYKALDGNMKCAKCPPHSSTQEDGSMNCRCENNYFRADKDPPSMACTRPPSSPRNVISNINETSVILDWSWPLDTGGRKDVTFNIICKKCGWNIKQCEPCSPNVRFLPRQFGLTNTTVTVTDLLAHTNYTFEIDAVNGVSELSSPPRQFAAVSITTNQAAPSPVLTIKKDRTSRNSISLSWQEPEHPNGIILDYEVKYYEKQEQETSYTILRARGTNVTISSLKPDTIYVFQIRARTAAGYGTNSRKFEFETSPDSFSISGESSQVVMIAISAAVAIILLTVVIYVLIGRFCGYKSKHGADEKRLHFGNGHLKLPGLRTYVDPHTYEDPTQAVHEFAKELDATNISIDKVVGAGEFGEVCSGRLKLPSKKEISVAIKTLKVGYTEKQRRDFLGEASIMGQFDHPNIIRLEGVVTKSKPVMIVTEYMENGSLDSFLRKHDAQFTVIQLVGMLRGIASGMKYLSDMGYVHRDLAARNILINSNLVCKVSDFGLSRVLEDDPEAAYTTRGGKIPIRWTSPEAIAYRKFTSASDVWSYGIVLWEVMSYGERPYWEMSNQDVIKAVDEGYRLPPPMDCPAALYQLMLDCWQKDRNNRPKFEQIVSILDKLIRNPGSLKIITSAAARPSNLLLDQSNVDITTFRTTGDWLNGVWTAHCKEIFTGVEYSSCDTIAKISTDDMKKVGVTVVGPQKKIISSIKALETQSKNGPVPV
# [4] = biological target: Protein-tyrosine kinase 2-beta (Homo sapiens) (UniProt Q14289); assay: Selectivity interaction (Upstate Kinase Profiler service (Millipore)) EUB0000056c PTK2B; settings: at 1 µM
# Sequence of Protein-tyrosine kinase 2-beta (Homo sapiens) (Q14289 whole entry, looked up): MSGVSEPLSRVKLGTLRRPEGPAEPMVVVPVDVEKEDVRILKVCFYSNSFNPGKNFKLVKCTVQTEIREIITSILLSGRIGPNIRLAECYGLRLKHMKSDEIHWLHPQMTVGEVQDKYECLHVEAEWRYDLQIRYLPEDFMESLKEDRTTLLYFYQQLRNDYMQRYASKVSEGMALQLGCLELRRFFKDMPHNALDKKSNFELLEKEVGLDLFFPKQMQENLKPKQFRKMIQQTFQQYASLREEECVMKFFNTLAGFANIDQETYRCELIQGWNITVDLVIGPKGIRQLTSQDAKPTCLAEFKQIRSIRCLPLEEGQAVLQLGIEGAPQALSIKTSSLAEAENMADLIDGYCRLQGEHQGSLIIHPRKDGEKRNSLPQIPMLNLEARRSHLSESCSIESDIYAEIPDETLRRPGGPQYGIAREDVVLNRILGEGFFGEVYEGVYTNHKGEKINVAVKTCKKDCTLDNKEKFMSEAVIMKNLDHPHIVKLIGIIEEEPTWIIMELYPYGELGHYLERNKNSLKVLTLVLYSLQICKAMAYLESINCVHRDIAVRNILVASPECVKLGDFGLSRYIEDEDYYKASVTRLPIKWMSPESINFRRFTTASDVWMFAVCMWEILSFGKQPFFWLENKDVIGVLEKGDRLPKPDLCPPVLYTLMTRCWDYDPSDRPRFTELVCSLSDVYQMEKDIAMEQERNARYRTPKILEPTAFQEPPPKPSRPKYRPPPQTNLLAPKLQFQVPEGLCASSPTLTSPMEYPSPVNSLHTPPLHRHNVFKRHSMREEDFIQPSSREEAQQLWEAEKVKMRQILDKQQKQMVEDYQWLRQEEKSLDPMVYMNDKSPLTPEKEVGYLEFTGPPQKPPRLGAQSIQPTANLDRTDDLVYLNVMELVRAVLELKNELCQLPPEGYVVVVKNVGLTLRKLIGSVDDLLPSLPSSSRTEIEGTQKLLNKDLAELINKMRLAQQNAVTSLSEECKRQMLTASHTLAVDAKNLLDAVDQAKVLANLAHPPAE
# Sequence of Diacylglycerol kinase alpha (Homo sapiens) (P23743 whole entry): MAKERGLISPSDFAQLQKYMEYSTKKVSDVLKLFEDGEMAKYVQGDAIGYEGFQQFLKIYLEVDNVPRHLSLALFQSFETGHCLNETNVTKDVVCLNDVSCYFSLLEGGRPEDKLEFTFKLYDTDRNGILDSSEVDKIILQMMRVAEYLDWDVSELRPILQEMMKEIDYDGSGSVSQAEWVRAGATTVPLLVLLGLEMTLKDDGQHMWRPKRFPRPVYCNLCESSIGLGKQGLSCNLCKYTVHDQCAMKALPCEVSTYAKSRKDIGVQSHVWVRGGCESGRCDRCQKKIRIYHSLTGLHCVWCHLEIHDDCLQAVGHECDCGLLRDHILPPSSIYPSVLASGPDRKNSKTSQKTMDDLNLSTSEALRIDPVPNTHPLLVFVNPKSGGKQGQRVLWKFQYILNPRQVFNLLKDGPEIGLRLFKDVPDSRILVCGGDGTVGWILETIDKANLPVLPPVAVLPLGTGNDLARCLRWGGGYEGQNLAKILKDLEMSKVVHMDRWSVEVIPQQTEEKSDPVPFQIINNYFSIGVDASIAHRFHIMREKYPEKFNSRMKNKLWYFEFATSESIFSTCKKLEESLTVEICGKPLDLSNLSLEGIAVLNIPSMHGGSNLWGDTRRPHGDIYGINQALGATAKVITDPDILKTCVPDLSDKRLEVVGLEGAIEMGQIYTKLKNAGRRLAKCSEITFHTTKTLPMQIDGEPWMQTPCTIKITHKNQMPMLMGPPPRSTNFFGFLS
structure (smiles),measurement,setting,value
C=CC(=O)Nc1ccc(C(=O)Nc2[nH]nc3c2CN(C(=O)N[C@H](CN(C)C)c2ccccc2)C3(C)C)cc1,% of engagement,[1],-18.9%
same,% of engagement,[2],-2.5%
C=CC(=O)Nc1cc(-n2c(=O)ccc3cnc4ccc(-c5ccc(NS(C)(=O)=O)cc5)cc4c32)ccc1C,% of control,[3]; at 1 µM,89%
same,% of control,[3]; at 10 µM,92%
Cc1ccc(-c2ccc3c(ccc4sc5c(c43)NC[C@@H](C)NC5=O)n2)cn1,% of inhibition,[4],12%
